Experimental data from US4166125A, “2-Oxo-phenylbutanoic acid derivatives” (Grelan Pharmaceutical Co., Ltd., priority 1977, dated 1979).

How the values were obtained:
[1] = Acute toxicity (1) (oral administration); assay type: in vivo; conditions: in vivo; mouse, oral, 7 days
Method: (§1) After administration of the compound, the number of mice that died during 7 days was observed, and LD50 value was calculated on the basis of the mortality.

mice = assay: Acute toxicity (1) (oral administration); assay type: in vivo; conditions: mice
Method: as §1

gastric mucosa [2] = assay: Effect on gastric mucosa (1) (oral administration); assay type: in vivo, mouse (ddY-strain); set-up: unit not given here; conditions: mice, 4 hours
Method: 4 Hours after the administration, the mouse was sacrificed with ether, and its stomach was removed. The stomach was treated with 5% formalin for 3 minutes, and gastric mucosa was observed under a stereoscopic microscope. When gastric lesion in the mucosa was found, the length of each lesion was measured. Degree of gastric damage (i.e. GD50)* was calculated on the basis of the length of the lesion of each mouse.
Remark *: GD50 : The value corresponding to the relative frequency of 50% on the normal probability paper plotted the length of gastric lesions of each mouse.

gastric mucosa [3] = assay: Effect on gastric mucosa (2) (oral administration); assay type: in vivo, rat (Sprague-Dawley strain); conditions: rats, 4 hours
Method: 4 Hours after the administration, the rat was sacrificed with ether, and its stomach was removed. The stomach was treated with 5% formalin for 3 minutes, and gastric mucosa was observed under a stereoscopic microscope. When gastric lesion in the mucosa was found, the number of the lesion in the mucosa was counted.

[4] = Stability on storage at 50° C. and humidity of 70% for 1 month; assay type: physicochemical; conditions: among the compounds (I)
Method: For example, when the compounds (I) are kept at temperature of 50° C., and humidity of 70% for 1 month, no substantial change with respect to their appearances and values of quantitative analysis was observed, and no decomposition product was detected by thin-layer chromatography. Thus compounds (I) are prepared for administration in the form of pharmaceutical compositions according to conventional methods in the field of the art, and it is possible to prepare a pharmaceutical composition which comprises a therapeutically effective amount of at least one compound of the general formula (I) as an active ingredient, i.e. anti-inflammatory composition, in solid administration form (e.g. tablets, granules, powders, capsules, suppository), and liquid administration form (e.g. suspension, emulsion). In that case, as carrier, vehicle, solvent or dispersant, there may be used any of those which are known in the field of art. There may be exemplified water, starch, lactose, crystalline cellulose, magnesium stearate, hydroxypropyl cellulose, mannitol, carboxymethyl cellulose, glycol, ethanol, corn oil, peanut oil, castor oil, cacao butter, isocacao, polyoxyethylene stearate. […]

[5] = tested on: gross behaviour of the rats; assay: Gross behaviour (2) (oral administration); conditions: oral, 500, 1000, 2000 and 4000 mg/Kg, 4 hours
Method: In 0.3% CMC-Na solution was suspended 2-oxo-3-[4-(1-oxo-2-isoindolinyl)phenyl]butanamide in at a concentration of 20%. The 20% CMC-Na suspension was administered orally to 3 male rats in each group (Sprague-Dawley strain) weighing 150 to 200 g. The dosage of the compound were 500, 1000, 2000 and 4000 mg/Kg. […] To rats of a control group was administered orally only 0.3% CMC-Na solution.

[6] = oral, 500, 1000, 2000 and 4000 mg/Kg, 7 days

CC(C(=O)C(N)=O)c1ccc(N2Cc3ccccc3C2=O)cc1 (stereo not drawn) [2-oxo-3-[4-(1-oxo-2-isoindolinyl)phenyl]butanamide]
LD50 at 168 h [1]: > 4000 mg/kg | Macroscopic observation of organs in head, thorax and abdominal cavity (mice; after 7 days): No abnormality was observed | Abnormal behaviour (mice; [6]): not observed | Death (mice; [6]): not observed | Inhibition to increase of body weight (mice; [6]): not observed | Degree of gastric damage (GD50) (gastric mucosa [2]; 100 mg/Kg oral): 1.0 | Degree of gastric damage (GD50) (gastric mucosa [2]; 200 mg/Kg oral): 7.0 | Degree of gastric damage (GD50) (gastric mucosa [2]; 400 mg/Kg oral): 2.5 | Mean number of gastric lesion (gastric mucosa [3]; 50 mg/Kg oral): 0 | Mean number of gastric lesion (gastric mucosa [3]; 100 mg/Kg oral): 0 | Mean number of gastric lesion (gastric mucosa [3]; 200 mg/Kg oral): 0.3 | Mean number of gastric lesion (gastric mucosa [3]; 400 mg/Kg oral): 1.6 | Mean number of gastric lesion (gastric mucosa [3]; 800 mg/Kg oral): 0.4 | Stability (in words) [4]: more stable | Abnormal behaviour (depression to spontaneous activity, loss of righting reflex, tremor, convulsion, abnormal gait, loss of pinna reflex, loss of corneal reflex, abnormality of respiration) [5]: not observed
